Assay results published in US9708500B2, “Liquid composition, pigment dispersion liquid, and aqueous ink composition for ink jet recording” (Seiko Epson Corporation, priority 2015, dated 2017).

Assay: distribution coefficient of water-octanol (log P), OECD Test Guideline 107
Details: for log P (distribution coefficient of water-octanol): OECD Test Guideline 107
From the text: Here, the distribution coefficient of water-octanol, that is, a log P value represents a value which is defined by OECD Test Guideline 107. As the log P value is high, hydrophobicity is high, and as the log P value is low, hydrophilicity is high.

SMILES	log P (distribution coefficient of water-octanol)	logP (octanol/water)
CCCC(=O)OCC(O)CO (stereo not drawn) [butyric acid 2,3-dihydroxypropyl]	−0.21	
CCCC(=O)OCC(COC(=O)CCC)OC(=O)CCC [glycerin tributyrate]		2.95
CCCCCC(=O)OCC(O)CO (stereo not drawn) [hexanoic acid 2,3-dihydroxypropyl]	0.85	
